The subject of one data set is HIVIIIB. Put plainly: Antiviral Activity: anti-HIV activity in MT4 cells infected with HIVIIIB (MTT). The data set is classed as cell-based. The settings on record: Human immunodeficiency virus 1, 120 h, MOI 0.003, 5 days, n=four duplicate determinations. As for the experimental part: (§1) The anti-HIV activity of the compound of the invention was determined in MF4 cells according to the following procedure: MT4 cells were infected with cell-free supernatant of HIVIIIB (previously frozen with known 50% tissue culture infectious dose (TCID50) at 0.003 multiplicity of infection (MOI)) for one hour. After one hour infection, cells were washed twice to remove residual viruses, resuspended in culture media and seeded into 96-well tissue culture plates at 1×10^4 cells per well with various half-log dilutions of compounds. Uninfected cells were included a toxicity and cell controls. RPMI 1640 media (GIBCO) with 10% fetal bovine serum was used as culture media. Various concentrations (50%, 25% and 12.5%) of human serum (SIGMA) were added to culture media resulting in final concentrations of 60%, 35% and 22.5% total serum. All assay plates were incubated in a 37° C. incubator for 5 days. The compound 3-[4,5-dimethylthiozol-2-yl]-2,5-diphenyltetrazolium bromide (MTT, SIGMA, 5 mg .mL stock in PBS) was then added to all wells at 25 μL per well and incubated for 4 hours. SDS (20%) with 0.02N HCl in water was added at 50 μL per well to lyse cells. Plates were incubated overnight for complete cell lysis and then read on a microtiter plate reader at 570/650 nm wavelengths to determine cell optical density (O.D.). Raw data was analysed for percent inhibition by the following formula: [formula]
The 50% effective concentration (EC50) was calculated by the median effect equation (Chou, 1975, Proc. Int. Cong. Pharmacol. 6th p. 619) to determine the efficacy of compound. The 50% cytotoxicity concentration (CTC50) was calculated using uninfected MT4 cells
Under these conditions, the data of Table 2 was obtained (n=four duplicate determinations).

The nature of data set [1]: Cytotoxicity in uninfected MT4 cells (MTT). The data set is classed as cell-based. Conditions: human, 5 days, n=four duplicate determinations, read-out: CTC50 (50% cytotoxicity concentration). As for the experimental part: as §1, with “RPMI 1640 media (GIBCO) with 10% fetal bovine serum was used as culture media. Various concentrations (50%, 25% and 12.5%) of human serum (SIGMA) were added to culture media resulting in final concentrations of 60%, 35% and 22.5% total serum.” left out, “The compound 3-[4,5-dimethylthiozol-2-yl]-2,5-diphenyltetrazolium bromide (MTT, SIGMA, 5 mg .mL stock in PBS) was then added to all wells at 25 μL per well and incubated for 4 hours.” left out
The 50% cytotoxicity concentration (CTC50) was calculated using uninfected MT4 cells

For the next data set, the target named is HIV-1 protease (Human immunodeficiency virus type 1 group M subtype B, UniProt P04585). Put plainly: Fluorogenic Assay for Screening Inhibitors of HIV Protease. Conditions: pH 4.5.

The compound `Cc1cccc(C)c1OCC(=O)N[C@@H](Cc1ccccc1)[C@@H](O)C[C@H](Cc1ccccc1)NC(=O)OC1CCSC1` (mixture of isomers) [Example 30, (2S,3S,5S)-2-(2,6-Dimethylphenoxyacetyl)amino-5-(3(R,S)-tetrahydrothienyloxycarbonyl)amino-1,6-diphenyl-3-hydroxyhexane] had an EC50 in the data set on HIVIIIB of 1000 nM. The CC50 at 120 h in data set [1] was 13500 nM. For the same compound, at HIV-1 protease, the inhibition at 0.0005 µM was determined as 52%.
In turn, `Cc1cccc(C)c1OCC(=O)N[C@@H](Cc1ccccc1)[C@@H](O)C[C@H](Cc1ccccc1)NC(=O)OC1CCCSC1` (mixture of isomers) [Example 31, (2S,3S,5S)-2-(2,6-Dimethylphenoxyacetyl)amino-5-(3(R,S)-tetrahydrothiopyranyloxycarbonyl)amino-1,6-diphenyl-3-hydroxyhexane] gave an EC50 with HIVIIIB of 1100 nM. Further, the CC50 at 120 h in data set [1] is 53300 nM. This compound also returned an inhibition at 0.0005 µM against HIV-1 protease of 52%.
The corresponding values for `Cc1cc(N)cc(C)c1OCC(=O)N[C@@H](Cc1ccccc1)C[C@H](O)[C@H](Cc1ccccc1)NC(=O)O[C@H]1CO[C@H]2OCC[C@H]21` [Example 1, (2S,3S,5S)-5-(2,6-Dimethyl-4-amino-phenoxyacetyl)amino-2-((3R,3aS,6aR)-bis-tetrahydrofuran-3-yl-oxycarbonyl)amino-1,6-diphenyl-3-hydroxyhexane] are 9 nM, 95000 nM and 78%.
`Cc1cc(N)cc(C)c1OCC(=O)N[C@@H](Cc1ccccc1)C[C@H](O)[C@H](Cc1ccccc1)NC(=O)O[C@@H]1CO[C@@H]2OCC[C@@H]21` [Example 2, (2S,3S,5S)-5-(2,6-Dimethyl-4-amino-phenoxyacetyl)amino-2-((3S,3aR,6aS)-bis-tetrahydrofuran-3-yl-oxycarbonyl)amino-1,6-diphenyl-3-hydroxyhexane] had an EC50 with HIVIIIB of 170 nM. Also, in data set [1], the CC50 at 120 h was 90000 nM. The same compound came in with an inhibition at 0.0005 µM against HIV-1 protease of 60%.
On to `Cc1cc(N)cc(C)c1OCC(=O)N[C@@H](Cc1ccccc1)[C@@H](O)C[C@H](Cc1ccccc1)NC(=O)O[C@H]1CO[C@H]2OCC[C@H]21` [Example 3, (2S,3S,5S)-2-(2,6-Dimethyl-4-amino-phenoxyacetyl)amino-5-((3R,3aS,6aR)-bis-tetrahydrofuran-3-yl-oxycarbonyl)amino-1,6-diphenyl-3-hydroxyhexane], for which, in the data set on HIVIIIB, the EC50 turned out to be 8 nM. The CC50 at 120 h in data set [1] was found to be 61000 nM. For the same compound, at 0.0005 µM the inhibition on HIV-1 protease was 91%.
For `Cc1cc(C)c(OCC(=O)N[C@@H](Cc2ccccc2)C[C@H](O)[C@H](Cc2ccccc2)NC(=O)O[C@H]2CO[C@H]3OCC[C@H]32)c(C)c1N` [Example 4, (2S,3S,5S)-5-(2,4,6-Trimethyl-3-amino-phenoxyacetyl)amino-2-((3R,3aS,6aR)-bis-tetrahydrofuran-3-yl-oxycarbonyl)amino-1,6-diphenyl-3-hydroxyhexane], in that order: 32 nM, 41000 nM and 74%.
For `Cc1cccc(C)c1OCC(=O)N[C@@H](Cc1ccccc1)C[C@H](O)[C@H](Cc1ccccc1)NC(=O)O[C@H]1CO[C@H]2OCC[C@H]21` [Example 5, (2S,3S,5S)-5-(2,6-Dimethyl-phenoxyacetyl)amino-2-((3R,3aS,6aR)-bis-tetrahydrofuran-3-yl-oxycarbonyl)amino-1,6-diphenyl-3-hydroxyhexane], in that order: 41 nM, greater than 100000 nM and 87%.
With `Cc1cccc(C)c1OCC(=O)N[C@@H](Cc1ccccc1)[C@@H](O)C[C@H](Cc1ccccc1)NC(=O)O[C@H]1CO[C@H]2OCC[C@H]21` [Example 6, (2S,3S,5S)-2-(2,6-Dimethyl-phenoxyacetyl)amino-5-((3R,3aS,6aR)-bis-tetrahydrofuran-3-yl-oxycarbonyl)amino-1,6-diphenyl-3-hydroxyhexane], the response in the data set with HIVIIIB was half-maximal at 61 nM (EC50). The CC50 at 120 h in data set [1] is greater than 100000 nM. The same compound came in with an inhibition at 0.0005 µM on HIV-1 protease of 91%.
For `Cc1cccc(CO)c1OCC(=O)N[C@@H](Cc1ccccc1)C[C@H](O)[C@H](Cc1ccccc1)NC(=O)O[C@H]1CO[C@H]2OCC[C@H]21` [Example 7, (2S,3S,5S)-5-(2-Hydroxymethyl-6-methyl-phenoxyacetyl)amino-2-((3R,3aS,6aR)-bis-tetrahydrofuran-3-yl-oxycarbonyl)amino-1,6-diphenyl-3-hydroxyhexane], in that order: 37 nM, 82000 nM and 88%.
For `Cc1ncnc(C)c1OCC(=O)N[C@@H](Cc1ccccc1)C[C@H](O)[C@H](Cc1ccccc1)NC(=O)O[C@H]1CO[C@H]2OCC[C@H]21` [Example 8, (2S,3S,5S)-5-(4,6-Dimethyl-pyrimidinyl-5-oxyacetyl)amino-2-((3R,3aS,6aR)-bis-tetrahydrofuran-3-yl-oxycarbonyl)amino-1,6-diphenyl-3-hydroxyhexane], in that order: 815 nM, greater than 100000 nM and 56%.
For `Cc1cccc(C)c1NCC(=O)N[C@@H](Cc1ccccc1)[C@@H](O)C[C@H](Cc1ccccc1)NC(=O)O[C@H]1CO[C@H]2OCC[C@H]21` [Example 9, (2S,3S,5S)-5-(N-(2,6-Dimethyl-phenyl)aminoacetyl)amino-2-((3R,3aS,6aR)-bis-tetrahydrofuran-3-yl-oxycarbonyl)amino-1,6-diphenyl-3-hydroxyhexane], the half-maximal effective concentration (EC50) with HIVIIIB came out at 253 nM. Moreover, the CC50 at 120 h in data set [1] was 56000 nM. Besides, the inhibition at 0.0005 µM at HIV-1 protease is 69%.
The corresponding values for `Cc1cc(C)c(OCC(=O)N[C@@H](Cc2ccccc2)C[C@H](O)[C@H](Cc2ccccc2)NC(=O)O[C@H]2CO[C@H]3OCC[C@H]32)c(C)c1` [Example 11, (2S,3S,5S)-5-(2,4,6-Trimethyl-phenoxyacetyl)amino-2-((3R,3aS,6aR)-bis-tetrahydrofuran-3-yl-oxycarbonyl)amino-1,6-diphenyl-3-hydroxyhexane] are 205 nM, 48000 nM and 82%.
In the data set on HIVIIIB, `COc1cccc(C)c1OCC(=O)N[C@@H](Cc1ccccc1)C[C@H](O)[C@H](Cc1ccccc1)NC(=O)O[C@H]1CO[C@H]2OCC[C@H]21` [Example 12, (2S,3S,5S)-5-(2-Methoxy-6-methylphenoxyacetyl)amino-2-((3R,3aS,6aR)-bis-tetrahydrofuran-3-yl-oxycarbonyl)amino-1,6-diphenyl-3-hydroxyhexane] had an EC50 of 353 nM. For the same compound, the CC50 at 120 h in data set [1] was greater than 32000 nM. For the same compound, the inhibition at 0.0005 µM against HIV-1 protease came to 74%.
In turn, `Cc1cccc(C)c1N(C)CC(=O)N[C@@H](Cc1ccccc1)C[C@H](O)[C@H](Cc1ccccc1)NC(=O)O[C@H]1CO[C@H]2OCC[C@H]21` [Example 13, (2S,3S,5S)-5-(N-(2,6-Dimethyl-phenyl)-N-methyl-aminoacetyl)amino-2-((3R,3aS,6aR)-bis-tetrahydrofuran-3-yl-oxycarbonyl)amino-1,6-diphenyl-3-hydroxyhexane] returned an EC50 with HIVIIIB of 2910 nM. In data set [1], the CC50 at 120 h amounted to 18000 nM. The compound also showed an inhibition at 0.0024 µM against HIV-1 protease of 50%.
Compound `Cc1cccc(C)c1OCC(=O)N[C@@H](Cc1ccccc1)[C@@H](O)C[C@H](Cc1ccccc1)NC(=O)OC1CCSC1C(C)C` (stereo partly drawn) [Example 27, (2S,3S,5S)-2-(2,6-Dimethylphenoxyacetyl)amino-5-(3(R,S)-2(R,S)-isopropyl-tetrahydrothienyloxycarbonyl)amino-1,6-diphenyl-3-hydroxyhexane] had an inhibition at 0.0013 µM against HIV-1 protease of 50%.
For the compound `O=C(N[C@@H](Cc1ccccc1)C[C@H](O)[C@H](Cc1ccccc1)NC(=O)c1cccc(O)c1)O[C@H]1CO[C@H]2OCC[C@H]21` [Example 66, (2S,3S,5S)-2-(3-Hydroxy-benzoyl)amino-5-((3R,3aS,6aR)-bis-tetrahydrofuran-3-yl-oxycarbonyl)amino-1,6-diphenyl-3-hydroxyhexane], the EC50 in the data set with HIVIIIB came to 644 nM. Besides, the inhibition at 0.0005 µM on HIV-1 protease came out at 68%.

Source of the values: US5905068A, “Retroviral protease inhibiting compounds” (Abbott Laboratories, priority 1996, dated 1999).
